This is an account of results in paper PMC4161152 (Journal of Medicinal Chemistry, 2014).

Holding throughout (assay type): cell-based
Assay [1] concerns human Raji lymphoma cells. Kind of assay: Raji lymphoma cell MTT assay. (Tetrazolium assays rely on reduction of a dye to a coloured formazan, in cell work by metabolically active cells.)
For another assay, the target named is T1, MCT1 (Mus musculus, UniProt P53986).
T1 sequence (P53986 1-493): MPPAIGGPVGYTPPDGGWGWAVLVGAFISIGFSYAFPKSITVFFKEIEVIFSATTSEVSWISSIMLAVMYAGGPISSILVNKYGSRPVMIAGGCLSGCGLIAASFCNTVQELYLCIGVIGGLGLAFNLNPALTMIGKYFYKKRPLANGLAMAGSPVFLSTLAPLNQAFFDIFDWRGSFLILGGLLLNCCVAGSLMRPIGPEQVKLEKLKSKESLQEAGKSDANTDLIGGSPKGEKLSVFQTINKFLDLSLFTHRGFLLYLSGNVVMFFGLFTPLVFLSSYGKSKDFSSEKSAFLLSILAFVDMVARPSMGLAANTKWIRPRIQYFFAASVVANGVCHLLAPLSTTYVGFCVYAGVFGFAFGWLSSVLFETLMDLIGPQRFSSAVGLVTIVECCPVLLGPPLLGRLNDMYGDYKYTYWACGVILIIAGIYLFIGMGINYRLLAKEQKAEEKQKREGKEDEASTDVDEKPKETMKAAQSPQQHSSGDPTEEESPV
Kind of assay: MCF7_MCT1 14C-lactate transport assay. The conditions noted are these: IC50 (nM) lactate transport, labeled (14C) lactate transport, MCF7 breast cancer cells engineered to overexpress MCT1, 10 min on ice.

In a further assay the target is T2, human MCT4 (Homo sapiens, UniProt O15427).
T2 sequence (O15427 1-465): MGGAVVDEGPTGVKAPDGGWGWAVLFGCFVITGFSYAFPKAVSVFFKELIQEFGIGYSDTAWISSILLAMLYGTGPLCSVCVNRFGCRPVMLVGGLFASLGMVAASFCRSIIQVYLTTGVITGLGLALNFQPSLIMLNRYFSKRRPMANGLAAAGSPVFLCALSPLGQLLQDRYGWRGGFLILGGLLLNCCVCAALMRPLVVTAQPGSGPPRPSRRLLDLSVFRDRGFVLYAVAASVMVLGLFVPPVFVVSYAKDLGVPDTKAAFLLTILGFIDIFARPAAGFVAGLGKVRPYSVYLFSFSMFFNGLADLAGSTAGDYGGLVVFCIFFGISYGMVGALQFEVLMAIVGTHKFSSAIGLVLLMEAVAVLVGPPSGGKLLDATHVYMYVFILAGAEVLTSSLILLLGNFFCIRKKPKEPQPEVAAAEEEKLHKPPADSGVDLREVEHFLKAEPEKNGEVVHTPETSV
Kind of assay: 14C lactate uptake in MCF7_MCT4 cells. The conditions noted are these: increased uptake versus parental MCF7 cells.

For the next assay, the system named is MCF7_MCT4 cells. In words: MCF7_MCT4 MTT assay. Conditions: Homo sapiens, 96 h, read-out: growth inhibition EC50, MCF7_MCT4 cells.

Each structure is given as a SMILES string. Some results are limits rather than exact numbers.

In the case of `CC(C)Cn1c(=O)n(C)c(=O)c2nc(SCCCCO)c(Cc3cccc4ccccc34)nc21` [Compound 15c], the “fold higher EC50 than clinical compound 2” value in assay [1] is on record as 2–4 fold.
As for `Cc1n[nH]c(C)c1Cc1nc2c(nc1CCCCCO)c(=O)n(C)c(=O)n2CC(C)C` [Compound 31], the “activity in Raji lymphoma cell proliferation assay (in words)” value (“activity” for short) in assay [1] was “inactive”.
Take `CC(C)Cn1c(=O)n(C)c(=O)c2c1nc(Cc1cccc3ccccc13)c(=O)n2CCCCCCO` [Compound 14d]: the “activity” value in assay [1] is “inactive”.
As for `CC(C)Cn1c(=O)n(C)c(=O)c2nc(SCCCO)c(Cc3cccc4ccccc34)nc21` [Compound 15b], the IC50 on MCT1 was found to be 858 nM.
Regarding `CC(C)Cn1c(=O)n(C)c(=O)c2[nH]c(=O)c(Cc3cccc4ccccc34)nc21` [Compound 12], the “activity” value in assay [1] is “inactive”.
On to `CC(C)Cn1c(=O)n(C)c(=O)c2nc(CCCCO)c(Cc3cccc4ccccc34)nc21` [Compound 23a], for which, on MCT1, the IC50 was > 2000 nM.
The compound `CC(C)Cn1c(=O)n(C)c(=O)c2c1nc(Cc1cccc3ccccc13)c(=O)n2CCCCO` [Compound 14b] returned an IC50 against MCT1 of 548 nM.
For the compound `CC(C)Cn1c(=O)n(C)c(=O)c2nc(/C=C\CCCO)c(Cc3cccc4ccccc34)nc21` [Compound 27], in assay [1], the “fold higher EC50 than clinical compound 2” value is 2–4 fold. This compound registered an IC50 at MCT1 of 116 nM.
Turning to `COCCCCCc1nc2c(=O)n(C)c(=O)n(CC(C)C)c2nc1Cc1cccc2ccccc12` [Compound 28], the “activity” value in assay [1] was “largely inactive”.
With `CC(C)Cc1nn(C)c(=O)c2c(SCCCO)n(Cc3cccc4ccccc34)cc12` [Compound 1, reference compound], the “effect on 14C lactate uptake in MCF7_MCT4 cells (in words)” value on human MCT4 is reported as “not inhibited”. Besides, the EC50 with MCF7_MCT4 cells was > 10000 nM.
In the case of `CC(C)Cn1c(=O)n(C)c(=O)c2nc(CCCCCO)c(Cc3cccc4ccccc34)nc21` [Compound 23b], in assay [1], the “fold higher EC50 than clinical compound 2” value was 2–4 fold. Further, the half-inhibitory concentration (IC50) on MCT1 is 192 nM.

By IC50 is commonly meant the concentration that inhibits the measured activity by half. Low readings indicate inhibition by little substance, high ones a need for much substance. One may read the EC50 as the concentration giving half of the maximal effect.
